Measurements reported in patent US12018252B2, “Methods and compositions for identifying neoantigens for use in treating cancer” (Arizona Board of Regents on Behalf of Arizona State …, priority 2019, dated 2024).

Tests used:
4T1 cells = experiment: BALB/C-4T1 mouse breast tumor model: immunization then tumor challenge; format: in vivo; details: 4T1-BALB/c
Description: BALB/c and C57BL/6 mice were from Charles River Laboratories or Jackson Laboratories. […] Tumor volumes were measured and calculated by (Length^2×Width/2) daily after the size was larger than 1 mm^3. Breeding pairs of BALB-neuT and FVB-neuN (FVB/N-Tg (MMTVneu) 202Mul) mice were obtained from Joseph Lustgarten, Mayo Clinic Arizona. Mice were monitored weekly for the tumor incidence after tumor size reached 1 mm^3. All experiments were performed in accordance with protocols approved by the Institutional Animal Care and Use Committee of Arizona State University.
The DNA fragments encoding FS peptides were cloned as a C-terminal fusion into the genetic immunization vectors pCMVi-UB (26) and pCMVi-LSrCOMPTT (27, 28) with the Bgl II and Hind III and mixed with 1:1 ratio as the vaccine antigen. Three adjuvants were encoded by genetic immunization vectors. The pCMVi-mGM-CSF vector expresses the adjuvant mouse granulocyte/macrophage colony-stimulating factor (mGM-CSF) under control of the human cytomegalovirus (CMV) promoter (27). […]. Vectors pCMVi-UB, pCMVi-LSrCOMPTT, pCMVi-LTA (also called pCMVi-LS-LTA-R192G) and pCMVi-LTB are available from the PSI:Biology-Materials Repository DNASU (dnasu.org) at Arizona State University. Additional adjuvants were the class A CpG 2216 single-stranded oligodeoxynucleotide obtained from Sigma and alum from Pierce.
Bullets for biolistic genetic immunization used the gold micronanoplex approach and were prepared as described (30) with the following changes. Two grams of 1-micron gold was used. Prior to addition of N-hydroxysuccinimide and N-(3-dimethylaminopropyl)-N′-ethylcarbodiimide hydrochloride, the gold was resuspended in 20 mL of a 0.1 M solution of 2-(N-morpholino) ethanesulfonic acid (MES), pH 6.0. DNA-gold micronanoplexes were prepared by combining, per bullet, 57 μL of cysteamine-gold solution with precipitated DNA (≤10 μg) that had been resuspended in ≤15 μL of water, and then vortexing for 10 min. To the DNA-cysteamine-gold was added […] of a freshly made solution of PEI-micron gold (167 mg/mL in 0.1 M MES, pH 6, without NaCl). The pelleted micronanoplexes were washed with ethanol prior to resuspension in n-butanol ([…]), followed by bullet formation under nitrogen gas.
For the three MS FS experiments, all mice (n=10 per group) were genetically immunized in the ear by Gene Gun at 8 weeks of age (2 shots/mouse, 60 ng pooled antigens plus 0.25 μg LTAB and 2.5 μg CpG2216 as the adjuvant for each shot) and boosted twice (two days apart) in three weeks with 1 μg pooled antigens plus the same adjuvants dosage. All mice were boosted again in two weeks with 50 μg KLH conjugated MS FS peptides with 50 μg CpG 2216 and 50 ul alum in total 100 ul PBS. […]

B16-F10 cells = experiment: C57BL/B16-F10 mouse melanoma model: genetic immunization then tumor challenge; format: in vivo; details: B16F10-C57BL6; gene gun genetic immunization; compared to mock/control antigen CPV 172; n=10 per group
[1] = gene vaccines three times in two week intervals, 2x10^3 4T1 cells subcutaneous, n=4 per group, vs mock

Sequence	tumor growth (4T1 cells; [1])	tumor growth (tumor volume) (B16-F10 cells)	tumor growth (4T1 cells; gene gun plus KLH-peptide boost, 5x10^3 4T1 cells, n=10 per group)	T cell dependence of protection (CD8 or CD4 T-cell depletion) (4T1 cells; immunized mice depleted with anti CD8 or anti CD4 antibody)
AVLLMCQLYQPWMCKEYYRLL [ZDHHC17, mouse mis-splicing FS antigen, skips exon 16]	did not	–	–	–
IPRMQPQASANHCQLLKVMVA [SLAIN2-FS, mouse mis-splicing FS antigen, skips exon 7]	conferred tumor retardation	–	–	–
TAIIGPNGSGCSGVYCHEEPQGEDSSV [SMC1A 1^4 FS, mouse mis-splicing FS antigen, SMC1A exon 1 joined to exon 4]	–	significant retardation of tumor growth	significantly retarded the 4T1 tumor growth	CD8 T cell dependent
